From PMC6201879, “N-substituted phenylbenzamides of the niclosamide chemotype attenuate obesity related changes in high fat diet fed mice” (PLoS ONE, 2018)
Where two headings read alike, the source gives them in different places.

Tests used:
[1] = Metabolic stability in human liver microsomes; format: in vitro ADME
Method: (§1) Three experiments were performed with 1) 0.5mg/ml microsomes and 1mM NADPH, 2) 0.5mg/ml microsomes without NADPH and 3) 0.5mg/ml heat inactivated microsomes without NADPH in 100mM phosphate buffer, containing 5mM magnesium chloride. […] At the indicated time points, 50μl samples were removed and stopped by addition of 4 volumes of cold acetonitrile with internal standards, 100nM alprazolam, 200nM labetalol and 2μM ketoprofen. The samples were centrifuged at 3,220 g for 40 minutes and aliquots of 100μl were subsequently diluted with 100μl of ultra-pure water and analyzed by LC/MS/MS using a (Shimadzu corporation) LC system coupled to a Shimadzu Triple Quad 5500 mass spectrometer with an ESI interface. The LC system used a Waters XSelect HSS T3 C18, 2.5μm, 2.1 x 50 mm column eluted with one of two methods using mobile phases A (water, 0.1% formic acid) and B (acetonitrile, 0.1% formic acid). […] The Shimadzu Triple Quad 5500 MS was operated with the following parameters: Ion source: Turbo spray; Ionization mode: ESI; Scan type: MRM; Collision gas: 10 L/min; Curtain gas: 30 L/min; Nebulize gas: 50 L/min; Auxiliary gas: 50 L/min; Temperature: 500°C; Ionspray voltage: +5500 V (positive MRM). All experiments were performed in duplicate. Data were analyzed using Microsoft excel, and peak areas were determined from extracted ion chromatograms.

[2] = tested on: Salmonella typhimurium TA98; test: Ames assay, strain TA98; details: for Mean Revertant Colony Counts TA98 SP9+: with S9; for Mean Revertant Colony Counts TA98 S9-: without S9
[3] = tested on: PH5CH8 liver cells; test: High-throughput hepatic de novo lipogenesis (DNL) assay, high content imaging of steatotic phenotype; format: cell-based, human; details: for IC50: Homo sapiens
[4] = Pharmacokinetic profile in Sprague Dawley rats (IV and PO); format: in vivo; details: Mean + SD (n = 3)
Method: To evaluate the pharmacokinetic profile by oral (PO) and intravenous (IV) administration routes we used 6 to 8-week old Sprague Dawley rats weighing approximately 200-330g (n = 3 per study group). Compounds were administered at 1mg/kg in 5% Cremophor EL and 20% PEG400 in water for IV and 5mg/kg in PBS for PO. All dose formulation was performed at room temperature. Animals were fasted overnight prior to dosing and were re-fed approximately 4 hours after dosing. For PO, 0.2ml of blood was collected pre- and 0.5, 1, 2, 4 8 12 and 24-hours after drug delivery and transferred to EDTA-K2 BD Vacutainer plastic blood collection tubes. IV samples were collected pre-injection and 0.08, 0.25, 0.5, 1, 2, 4, 8, 12, 24-hours post injection. Blood samples were centrifuged at 2,000 g for 5 minutes at 4°C to obtain plasma. Plasma samples were stored at -75±15°C prior to analysis and then thawed and analyzed by LC-MS/MS method and pharmacokinetic calculations were performed using WinNolin (Phoenix, version 6.4). For IV administration: T1/2, C0, AUClast, AUCinf, MRT, Cl, Vss, and number of points for regression were determined. For PO administration: T1/2, Cmax, Tmax, AUCinf, AUClast, F(0-∞) %, and number of points for regression were determined. Data are reported as mean and standard deviation.

[5] = Metabolic stability in mouse liver microsomes; format: in vitro ADME
Method: as §1

[6] = tested on: Salmonella typhimurium TA100; details: for Mean Revertant Colony Counts TA-100 SP9+: with S9; for Mean Revertant Colony Counts TA-100 S9-: without S9
[7] = any concentration tested, vs negative control

Compound: CC(C)(C)c1cc(C(=O)Nc2ccc(C(=O)O)cc2Cl)c(O)c(C(C)(C)C)c1 [Compound 600453, 3-Chloro-4-[(3,5-di-tert-butyl-2-hydroxybenzene)amido]benzoic acid]
- Remaining Percentage of 60 min (%), Human, Tested Sample ([1]; 0.5mg/ml microsomes and 1mM NADPH): 58.8%
- Remaining Percentage of 60 min (%), Human, Negative Control ([1]; 0.5mg/ml microsomes without NADPH): 92.2%
- Remaining Percentage of 60 min (%), Human, Heat-inactivated Control ([1]; heat inactivated microsomes without NADPH): 93.7%
- Mean Revertant Colony Counts TA98 SP9+ ([2]; 1.5 ug/Well): 5.0
- Mean Revertant Colony Counts TA98 S9- ([2]; 1.5 ug/Well): 4.3
- Mean Revertant Colony Counts TA98 SP9+ ([2]; 4 ug/Well): 8.3
- Mean Revertant Colony Counts TA98 S9- ([2]; 4 ug/Well): 3.7
- Mean Revertant Colony Counts TA98 SP9+ ([2]; 10 ug/Well): 7.7
- Mean Revertant Colony Counts TA98 S9- ([2]; 10 ug/Well): 3.3
- Mean Revertant Colony Counts TA98 SP9+ ([2]; 25 ug/Well): 6.3
- Mean Revertant Colony Counts TA98 S9- ([2]; 25 ug/Well): 3.0
- Mean Revertant Colony Counts TA98 SP9+ ([2]; 64 ug/Well): 8.7
- Mean Revertant Colony Counts TA98 S9- ([2]; 64 ug/Well): 6.0
- Mean Revertant Colony Counts TA98 SP9+ ([2]; 160 ug/Well): 6.3
- Mean Revertant Colony Counts TA98 S9- ([2]; 160 ug/Well): 3.7
- Mean Revertant Colony Counts TA98 SP9+ ([2]; 400 ug/Well): 7.3
- Mean Revertant Colony Counts TA98 S9- ([2]; 400 ug/Well): 2.0
- Mean Revertant Colony Counts TA98 SP9+ ([2]; 1000 ug/Well): 4.0
- Mean Revertant Colony Counts TA98 S9- ([2]; 1000 ug/Well): 3.7
- fold increase in the mean number of revertant colonies, TA98 [2, 7]: < 2 fold
- IC50 ([3]; PH5CH8 liver cells, 10-point dose response between 1μM and 1.9nM, read-out: IC50 (uM), inhibition of steatotic phenotype in DNL assay): 0.14 µM
- IC50 ([3]; S1 Table, SAR for N-Substituted Phenylbenzamides, read-out: IC50): 0.091 µM
- Active/Inactive ([3]; S1 Table, SAR for N-Substituted Phenylbenzamides): Active
- AUC _%Extrap_obs (IV) ([4]; IV 1 mg/kg): 0.50 +/-0.114%
- AUCl ast/D (IV) ([4]; IV 1 mg/kg): 5400 ± 683 ng·kg·h/mL/mg
- V ss_obs ([4]; IV 1 mg/kg): 0.60 ± 0.076 L/kg
- AUC _%Extrap_obs (PO) ([4]; PO 5 mg/kg in PBS): 2.22 +/- 1.36%
- AUC last / D (PO) ([4]; PO 5 mg/kg in PBS): 3390 ± 551 ng·kg·h/mL/mg
- T 1/2 (PO) ([4]; PO 5 mg/kg in PBS, 5 mg/kg): 3.91 ± 0.75 h
- F (oral bioavailability) ([4]; PO 5 mg/kg vs IV 1 mg/kg): 63.91 +/- 10.5%
- half-life ([4]; Sprague Dawley, rat, plasma, iv, 1 mg/kg, IV 1 mg/kg, read-out: T 1/2 (IV) (converted)): 3.68 ± 0.13 h
- Cmax ([4]; Sprague Dawley, rat, plasma, po, 5 mg/kg, PO 5 mg/kg in PBS): 2050 ± 558 ng/mL
- half-life ([4]; Sprague Dawley, rat, plasma, po, 5 mg/kg, PO 5 mg/kg in PBS, read-out: T 1/2 (PO) (converted)): 3.9 h
- bioavailability ([4]; Sprague Dawley, rat, plasma, po, 5 mg/kg, PO 5 mg/kg vs IV 1 mg/kg, read-out: F (oral bioavailability)): 64%
- C0 ([4]; rat, plasma, IV 1 mg/kg): 2816 ± 7.02 ng/mL
- AUC(0-inf) ([4]; rat, plasma, IV 1 mg/kg, read-out: AUC Inf (IV)): 5420 ± 689 ng·h/mL
- AUC(0-t) ([4]; rat, plasma, IV 1 mg/kg, read-out: AUC last (IV)): 5400 ± 683 ng·h/mL
- clearance ([4]; rat, plasma, IV 1 mg/kg, read-out: Cl_obs): 3.11 ± 0.42 mL/min/kg
- MRT inf ([4]; rat, plasma, IV 1 mg/kg, read-out: MRT Inf_obs (IV)): 3.22 ± 0.32 h
- Tmax ([4]; rat, plasma, PO 5 mg/kg in PBS): 4 h
- AUC(0-inf) ([4]; rat, plasma, PO 5 mg/kg in PBS, read-out: AUC Inf (PO)): 17300 ± 2850 ng·h/mL
- AUC(0-t) ([4]; rat, plasma, PO 5 mg/kg in PBS, read-out: AUC last (PO)): 16900 ± 2750 ng·h/mL
- MRT inf ([4]; rat, plasma, PO 5 mg/kg in PBS, read-out: MRT Inf_obs (PO)): 7.4 ± 0.44 h
- Remaining Percentage of 60 min (%), Mouse, Tested Sample ([5]; 0.5mg/ml microsomes and 1mM NADPH, 60 min): 88.1%
- Remaining Percentage of 60 min (%), Mouse, Negative Control ([5]; 0.5mg/ml microsomes without NADPH, 60 min): 109.7%
- stability in MLM ([5]; 60 minutes): stable
- Remaining Percentage of 60 min (%), Mouse, Heat-inactivated Control ([5]; heat inactivated microsomes without NADPH, 60 min): 91.4%
- Mean Revertant Colony Counts TA-100 SP9+ ([6]; 1.5 ug/Well): 17.3
- Mean Revertant Colony Counts TA-100 S9- ([6]; 1.5 ug/Well): 35.0
- Mean Revertant Colony Counts TA-100 SP9+ ([6]; 4 ug/Well): 21.3
- Mean Revertant Colony Counts TA-100 S9- ([6]; 4 ug/Well): 30.0
- Mean Revertant Colony Counts TA-100 SP9+ ([6]; 10 ug/Well): 27.0
- Mean Revertant Colony Counts TA-100 S9- ([6]; 10 ug/Well): 33.3
- Mean Revertant Colony Counts TA-100 SP9+ ([6]; 25 ug/Well): 34.0
- Mean Revertant Colony Counts TA-100 S9- ([6]; 25 ug/Well): 24.0
- Mean Revertant Colony Counts TA-100 SP9+ ([6]; 64 ug/Well): 31.7
- Mean Revertant Colony Counts TA-100 S9- ([6]; 64 ug/Well): 26.3
- Mean Revertant Colony Counts TA-100 SP9+ ([6]; 160 ug/Well): 24.3
- Mean Revertant Colony Counts TA-100 S9- ([6]; 160 ug/Well): 21.3
- Mean Revertant Colony Counts TA-100 SP9+ ([6]; 400 ug/Well): 29.3
- Mean Revertant Colony Counts TA-100 S9- ([6]; 400 ug/Well): 8.0
- Mean Revertant Colony Counts TA-100 SP9+ ([6]; 1000 ug/Well): 15.7
- Mean Revertant Colony Counts TA-100 S9- ([6]; 1000 ug/Well): 2.7
- fold increase in the mean number of revertant colonies, TA100 [6, 7]: < 2 fold
